Experimental data published in ChEMBL document CHEMBL4014301, “Design, synthesis and evaluation of 4-substituted anthra[2,1-c][1,2,5]thiadiazole-6,11-dione derivatives as novel non-camptothecin topoisomerase I inhibitors” (Bioorg Med Chem Lett, 2017).

What was measured:
Format in all cases: functional, cell-based
HCT-116 = assay: Antiproliferative activity against human HCT116 cells after 72 hrs by MTT assay; settings: Homo sapiens, HCT-116, 72 h
ZR-75-30 = assay: Antiproliferative activity against human ZR-7530 cells after 72 hrs by MTT assay; settings: Homo sapiens, ZR-75-30, 72 h
A549 = assay: Antiproliferative activity against human A549 cells after 72 hrs by MTT assay; settings: Homo sapiens, A549, 72 h

Structure (SMILES)	IC50 (HCT-116) [µM]	IC50 (ZR-75-30) [µM]	IC50 (A549) [µM]
O=C1c2ccccc2C(=O)c2c1cc(S(=O)(=O)c1nc3ccccc3s1)c1nsnc21	> 100	> 100	> 100
O=C1c2ccccc2C(=O)c2c1cc(Sc1ccc(F)cc1)c1nsnc21	9.8	20	> 50
O=C1c2ccccc2C(=O)c2c1cc(Sc1nc3ccccc3s1)c1nsnc21	> 100	> 100	> 100
CC(C)c1ccc(Sc2cc3c(c4nsnc24)C(=O)c2ccccc2C3=O)cc1	> 100	> 100	> 100
O=C1c2ccccc2C(=O)c2c1cc(NCc1ccc(C(F)(F)F)cc1)c1nsnc21	72	98	> 100
COc1ccc(Sc2cc3c(c4nsnc24)C(=O)c2ccccc2C3=O)cc1	> 100	> 100	> 100
Cc1ccc(Sc2cc3c(c4nsnc24)C(=O)c2ccccc2C3=O)cc1	26	22	> 100
O=C1c2ccccc2C(=O)c2c1cc(Sc1ccc(Cl)cc1)c1nsnc21	> 100	> 100	> 100
O=C1c2ccccc2C(=O)c2c1cc(NCc1ccc(Cl)cc1)c1nsnc21	> 100	> 100	> 100
O=C1c2ccccc2C(=O)c2c1cc(S(=O)(=O)c1cccc(F)c1)c1nsnc21	24	> 100	> 100
O=C1c2ccccc2C(=O)c2c1cc(S(=O)(=O)c1ccc(Cl)cc1)c1nsnc21	15	> 100	> 100
O=C1c2ccccc2C(=O)c2c1cc(S(=O)(=O)c1ccc(F)cc1)c1nsnc21	23	36	> 100
O=C1c2ccccc2C(=O)c2c1cc(SCc1ccccc1)c1nsnc21	> 100	> 100	> 100
O=C1c2ccccc2C(=O)c2c1cc(S(=O)(=O)Cc1ccccc1)c1nsnc21	68	> 100	> 100
O=C1c2ccccc2C(=O)c2c1cc(S(=O)(=O)c1cccc(Cl)c1)c1nsnc21	> 100	> 100	> 100
O=C1c2ccccc2C(=O)c2c1cc(S(=O)(=O)c1ccc(Br)cc1)c1nsnc21	18	94	97
O=C1c2ccccc2C(=O)c2c1cc(N1CCN(Cc3ccccc3)CC1)c1nsnc21	> 100	> 100	> 100
O=C1c2ccccc2C(=O)c2c1cc(N1CCCCC1)c1nsnc21	> 100	8.1	> 100
Cc1cccc(Sc2cc3c(c4nsnc24)C(=O)c2ccccc2C3=O)c1	21	49	> 100
CCCCCCCCNc1cc2c(c3nsnc13)C(=O)c1ccccc1C2=O	54	22	31
O=C1c2ccccc2C(=O)c2c1cc(N1CCCC1)c1nsnc21	68	45	> 100
CC(C)(C)c1ccc(Sc2cc3c(c4nsnc24)C(=O)c2ccccc2C3=O)cc1	> 100	> 100	> 100
O=C1c2ccccc2C(=O)c2c1cc(Sc1cccc(Cl)c1)c1nsnc21	> 100	> 100	> 100

Structure (SMILES)	IC50 (HCT-116) [µM]	IC50 (ZR-75-30) [µM]	IC50 (A549) [µM]
O=C1c2ccccc2C(=O)c2c1cc(S(=O)(=O)c1ccccc1)c1nsnc21	35	> 100	> 100
O=C1c2ccccc2C(=O)c2c1cc(Sc1cccc(F)c1)c1nsnc21	> 50	> 50	> 50
CCCNc1cc2c(c3nsnc13)C(=O)c1ccccc1C2=O	> 100	> 100	> 100
CCOc1cccc(Sc2cc3c(c4nsnc24)C(=O)c2ccccc2C3=O)c1	> 50	> 50	> 50
O=C1c2ccccc2C(=O)c2c1cc(Sc1ccccc1)c1nsnc21	> 100	> 100	> 100
COc1ccc(S(=O)(=O)c2cc3c(c4nsnc24)C(=O)c2ccccc2C3=O)cc1	> 50	> 50	> 50
CC[C@@]1(O)C(=O)OCc2c1cc1n(c2=O)Cc2cc3ccccc3nc2-1 [CAMPTOTHECIN]	0.12	0.24	
CCOc1ccc(Nc2cc3c(c4nsnc24)C(=O)c2ccccc2C3=O)cc1	100	91	> 100
O=C1c2ccccc2C(=O)c2c1cc(NC1CCCCC1)c1nsnc21	5.1	4.1	3.8
O=C1c2ccccc2C(=O)c2c1cc(N1CCN(c3ccccn3)CC1)c1nsnc21	> 100	> 100	> 100
O=C1c2ccccc2C(=O)c2c1cc(NCc1ccccc1)c1nsnc21	1.9	4.5	4
CCCCCCNc1cc2c(c3nsnc13)C(=O)c1ccccc1C2=O	50	47	> 100
CCC(C)Nc1cc2c(c3nsnc13)C(=O)c1ccccc1C2=O (stereo not drawn)	58	> 100	> 100
CCCCCCCNc1cc2c(c3nsnc13)C(=O)c1ccccc1C2=O	34	12	44
CCOc1cccc(S(=O)(=O)c2cc3c(c4nsnc24)C(=O)c2ccccc2C3=O)c1	> 100	> 100	> 100
CC(C)(C)OC(=O)N1CCN(c2cc3c(c4nsnc24)C(=O)c2ccccc2C3=O)CC1	> 100	> 100	> 100
O=C1c2ccccc2C(=O)c2c1cc(NCc1cccnc1)c1nsnc21	87	12	> 100
O=C1c2ccccc2C(=O)c2c1cc(Sc1ccc(Br)cc1)c1nsnc21	> 100	> 100	> 100
Cc1cccc(S(=O)(=O)c2cc3c(c4nsnc24)C(=O)c2ccccc2C3=O)c1	78	> 100	> 100
CC(C)c1ccc(S(=O)(=O)c2cc3c(c4nsnc24)C(=O)c2ccccc2C3=O)cc1	27	83	> 100
CC(C)(C)c1ccc(S(=O)(=O)c2cc3c(c4nsnc24)C(=O)c2ccccc2C3=O)cc1	34	> 50	> 50
CCc1c2c(nc3ccc(OC(=O)N4CCC(N5CCCCC5)CC4)cc13)-c1cc3c(c(=O)n1C2)COC(=O)[C@]3(O)CC [IRINOTECAN]	6.3	18	
